Values of other authors, collected in patent US20130292614A1, “F[…] AS […]” (3M INNOVATIVE PROPERTIES COMPANY, priority 2011, published 2013).

Details: inhalation; 2.5 to 3 hour; cited from earlier work

In the case of `FC(F)(F)C1(F)OC1(F)F` (stereo not shown) [C3 perfluorooxirane], the “acute lethal concentration (ALC)” value is given as 200 ppm.
